Data from patent US5453524A, “Phosphorus-containing isoprenoid derivatives” (Eisai Co., Ltd., priority 1991, dated 1995).
Where a name gives a salt, the structure may show the parent alone.

Target: T1, squalene synthetase (Rattus norvegicus, UniProt Q02769)
T1 construct: from tissue; host or cells: liver microsomes of cholestyramine-fed Sprague-Dawley rat
T1 sequence (Q02769 1-416): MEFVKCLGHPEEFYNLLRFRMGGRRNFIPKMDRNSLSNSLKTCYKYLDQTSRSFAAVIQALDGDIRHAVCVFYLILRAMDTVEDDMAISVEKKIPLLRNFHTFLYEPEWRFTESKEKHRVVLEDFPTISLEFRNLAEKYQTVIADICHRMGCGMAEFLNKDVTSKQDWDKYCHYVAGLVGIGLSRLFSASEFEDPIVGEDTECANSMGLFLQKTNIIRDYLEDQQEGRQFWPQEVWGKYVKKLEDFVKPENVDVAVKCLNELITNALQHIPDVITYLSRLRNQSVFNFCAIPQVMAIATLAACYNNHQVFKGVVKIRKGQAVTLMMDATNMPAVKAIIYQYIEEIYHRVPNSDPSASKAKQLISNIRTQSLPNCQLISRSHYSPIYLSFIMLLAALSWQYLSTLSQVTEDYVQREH
Assay: inhibitory activity against squalene synthetase with liver microsome of cholestyramine-treated rat
Format: biochemical
Details: liver microsome of cholestyramine-treated Sprague-Dawley rat; 10 μM 3H-FPP, pH 7.4, 37° C., 10 min
Method: Determination of inhibitory activity against squalene synthetase with liver microsome of cholestyramine-treated rat
1 mM NADPH (nicotinamide adenine dinucleotide phosphate)
10 μM ^3 H-FPP (farnesylpyrophosphoric acid) (10 mCi/mmol, a product of New England Nuclea Co.)
0.1 mg/ml liver microsome of rat 37° C., 10 min.
These components were put in a spit tube as follows: […]
______________________________________
sample solution of 5-fold concentration
1 mg/ml liver microsome of rat
The obtained mixture was preincubated at 37° C. for 5 minutes. 50 μl of 100 μM ^3 H-FPP (10 mCi/mmol; NEN) was added to the resulting mixture to initiate a reaction. After 10 minutes, 1 ml of 4N NaOH was added to the mixture to stop the reaction, followed by the addition thereto of 1 ml of ethanol. The obtained mixture was incubated at 80° C. for 12 hours, cooled with ice and extracted with petroleum ether twice. The petroleum ether layers were separated from the aqueous layer and evaporated to dryness with nitrogen gas. The residue was dissolved in 25 μl of chloroform containing squalene, famesol and cholesterol as markers. The obtained solution was applied to TLC (Empore; 412001-1) and developed under the following conditions:
benzene/isopropyl ether (1: 1), 6 min.
The band of squalene was cut from the plate and examined for radioactivity with a liquid scintillation counter to determine the inhibitory ratio.
(2) Preparation of Liver Microsome of Rat
A Sprague-Dawley rat was fed with food containing 2% of cholestyramine (Dowex 1-X2) for at least 5 days to enhance the cholesterol-biosynthesizing activity of the rat. At midnight (0:00), the liver was extirpated from the rat and washed with a 1.154 (w/v) ice-cooled KCl solution to remove the blood from the liver. The resulting liver was cut into small pieces with scissors, homogenized with a Teflon homogenizer of the loose fitting type and subjected to centrifugation (700 g, 10 min). The obtained supernatant was further subjected to centrifugation (15,000 g, 20 min) and the obtained supernatant was furthermore subjected to centrifugation (105,000 g 60 min) to be separated into a microsome fraction and a supernatant. This microsome fraction was washed with a 0.1M potassium phosphate buffer (pH: 7.4) once and suspended in a 0.1M potassium phosphate buffer in the liver concentration of 3 g/ml. The obtained suspension was examined for protein concentration by the Lowry method and the protein concentration was adjusted to 20 mg/ml.
IC50 values of the squalene synthetase inhibiting activity are given in Tables 1 to 5, wherein Me represents a methyl group and Et an ethyl group.

IC50 | Compound
2 nM | C/C(=C\CC/C(C)=C/CC(P(=O)(O)O)P(=O)(O)O)CC/C=C/c1ccccc1 [Example 20, (E,E,E)-4,8-Dimethyl-12-phenyl-3,7,11-dodecatrienyl-1,1-bis(phosphonic acid disodium salt)]
14 nM | CC(C)=CCC/C(C)=C/CCC(C)N(C)CCCC(C(=O)O)P(=O)(O)O (centres unmarked) [Example 51, Trisodium salt of 1-carboxy-4,{(E)-N-methyl-1,5,9-trimethyl-4,8-decadienylamino}butylphosphonic acid]
3 nM | CC(C)=CCC/C(C)=C/CCC(C)N(C)CCCC(P(=O)(O)O)P(=O)(O)O (centres unmarked) [Example 18, 4-{(E)-N-Methyl-1,5,9-trimethyl-4,8-decadienylamino}-butyl-1,1-bis(phosphonic acid disodium salt)]
1 nM | CC(C)=CCC/C(C)=C/CCN(C)CCCC(P(=O)(O)O)P(=O)(O)O [Example 19, 4-{(E)-N-Methyl-4,8-dimethyl-3,7-nonadienylamino}-butyl-1,1-bis(phosphonic acid disodium salt)]
3 nM | CC(C)=CCC/C(C)=C/CNCCCC(P(=O)(O)O)P(=O)(O)O [Example 45, 4-{(E)-3,7-Dimethyl-2,6-octadienylamino}butyl-1,1-bis(phosphonic acid disodium salt)]
1 nM | C/C(=C\CC(P(=O)(O)O)P(=O)(O)O)CC/C=C(\C)c1ccccc1 [Example 21, (E,E)-4-Methyl-8-phenyl-3,7-nonadienyl-1,1-bis(phosphonic acid disodium salt)]
2 nM | CC(C)=CCC/C(C)=C/CC/C(C)=C/CN(C)CCCC(P(=O)(O)O)P(=O)(O)O [Example 17, 4-{(E,E)-N-Methyl-3,7,11-trimethyl-2,6,10-dodecatrienylamino}butyl-1,1-bis(phosphonic acid disodium salt)]
8 nM | CC(C)=CCC/C(C)=C/CC/C(C)=C/CC/C(C)=C/CC(P(=O)(O)O)P(=O)(O)O [Example 16, (E,E,E)-4,8,12,16-Tetramethyl-3,7,11,15-heptadecatetraenyl-1,1-bis(phosphonic acid disodium salt)]
1600 nM | CC(C)=CCC/C(C)=C/CC/C(C)=C/CC(C(=O)O)P(=O)(O)O (centres unmarked) [Example 32, Trisodium salt of (E,E)-carboxy-4,8,12-trimethyl-3,7,11-tridecatrienylphosphonic acid]
180 nM | CC(C)=CCC/C(C)=C/CC/C(C)=C/CCC(C(=O)O)P(=O)(O)O (centres unmarked) [Example 33, Trisodium salt of-(E,E)-1-carboxy-5,9,13-trimethyl-4,8,12-tetradecatrienylphosphonic acid]
1 nM | CC(C)=CCC/C(C)=C/CC/C(C)=C/CN(C)C(P(=O)(O)O)P(=O)(O)O [Example 48, {(E,E)-N-Methyl-3,7,11-trimethyl-2,6,10-dodecatrienylamino}methylbis(phosphonic acid disodium salt)]
300 nM | CC(C)=CCC/C(C)=C/CC(P(=O)(O)O)P(=O)(O)O [Example 15, (E)-4,8-Dimethyl3,7-nonadienyl-1,1-bis(phosphonic acid disodium salt)]
2 nM | CC(C)=CCC/C(C)=C/CC/C(C)=C/CN(C)CCCCC(P(=O)(O)O)P(=O)(O)O [Example 49, 5-{(E,E)-N-Methyl-3,7,11-trimethyl-2,6,10-dodecatrienylamino}pentyl-1,1-bis(phosphonic acid disodium salt)]
3 nM | CC(C)=CCC/C(C)=C/CC/C(C)=C/CC(P(=O)(O)O)P(=O)(O)O [Example 13, (E,E)-4,8,12-Trimethyl-37,11-tridecatrienyl-1,1-bis(phosphonic acid disodium salt)]
1 nM | C/C(=C\CC(P(=O)(O)O)P(=O)(O)O)CC/C=C/c1ccccc1 [Example 22, (E,E)-4-Methyl-8-phenyl-3,7-octadienyl-1,1-bis(phosphonic acid disodium salt)]
600 nM | CC(C)=CCC/C(C)=C/CC/C(C)=C/C=C/CC(C(=O)O)P(=O)(O)O (centres unmarked) [Example 34, Trisodium salt of (E,E,E)-1-carboxy-6,10,14-trimethyl-3,5,9,13-pentadecatetraenylphosphonic acid]
5 nM | CC(C)=CCC/C(C)=C/CC/C(C)=C/CCC(P(=O)(O)O)P(=O)(O)O [Example 14, (E,E)-5,9,13-Trimethyl-4,8,12-tetradecatrienyl-1,1-bis(phosphonic acid disodium salt)]
3 nM | CCN(C/C=C(\C)CCC=C(C)C)CCCC(P(=O)(O)O)P(=O)(O)O [Example 44, 4-{(E)-N-Ethyl-3,7-dimethyl-2,6-octadienylamino}butyl-1,1-bis(phosphoric acid disodium salt)]
2 nM | CC(C)=CCC/C(C)=C/CC/C(C)=C/CNC(P(=O)(O)O)P(=O)(O)O [Example 47, {(E,E)-3,7,11-Trimethyl-2,6,10-dodecatrienylamino}-methylbis(phosphonic acid sodium salt)]
0.5 nM | C/C(=C\CN(C)CCCC(P(=O)(O)O)P(=O)(O)O)CC/C=C(\C)c1ccccc1 [Example 23, 4-{(E,E)-N-Methyl-3-methyl-7-phenyl-2,6-octadienylamino}-butyl-1,1-bis(phosphonic acid disodium salt)]
20 nM | CC(C)=CCC/C(C)=C/CC/C(C)=C/CN(C)CCCC(C(=O)O)P(=O)(O)O (centres unmarked) [Example 35, Trisodium salt of 1-carboxy,4-{(E,E)-N-methyl-3,7,11-trimethyl-2,6,10-dodecatrienylamino}burylphosphonic acid]
3 nM | CC(C)=CCC/C(C)=C/CN(C)CCCC(P(=O)(O)O)P(=O)(O)O [Example 43, 4-{(E)-N-Methyl-3,7-dimethyl-2,6-octadienylamino}butyl 1,1-bis(phosphonic acid disodium salt)]
2 nM | CC(C)=CCC/C(C)=C/CCC(C)N(C)CCCCC(P(=O)(O)O)P(=O)(O)O (centres unmarked) [Example 46, 5-{(E}-N-Methyl-1,5,9-trimethyl-4,8-decadienylamino}-pentyl-1,1-bis(phosphonic acid disodium salt)]

Compound | IC50
CCOP(=O)(O)C(CC/C=C(\C)CC/C=C(\C)CCC=C(C)C)C(=O)O (centres unmarked) [Example 29, Disodium salt of ethyl(E,E)-1-carboxy-5,9,13-trimethyl-4,8,12-tetradecatrienylphosphonate] | 7300 nM
CCOP(=O)(O)C(C/C=C/C=C(\C)CC/C=C(\C)CCC=C(C)C)C(=O)O (centres unmarked) [Example 30, Disodium salt of ethyl (E,E,E)-1-carboxy-6,10,14-trimethyl-3,5,9,13-pentadecatetraenylphosphonate] | 7100 nM
CCOC(=O)C(C/C=C(\C)CC/C=C(\C)CCC=C(C)C)P(=O)(O)O (centres unmarked) [Example 31, Disodium (E,E)-1-carboethoxy4,8,12-trimethyl-3,7,11-tridecatrienylphosphonate] | 9400 nM
